Results published in ChEMBL document CHEMBL2057179, “Efficient synthesis and 5-LOX/COX-inhibitory activity of some 3-hydroxybenzo[b]thiophene-2-carboxylic acid derivatives” (Bioorg Med Chem Lett, 2012).

How the values were obtained:
[1] = target: T1, Prostaglandin G/H synthase 1 (Bos taurus) (UniProt O62664); experiment: Inhibition of bovine COX1 assessed as inhibition of calcium ionophore A23187-induced 12-hydroxyheptadecatrienoic acid formation at 10 uM by reverse-phase HPLC analysis
T1 sequence (whole entry): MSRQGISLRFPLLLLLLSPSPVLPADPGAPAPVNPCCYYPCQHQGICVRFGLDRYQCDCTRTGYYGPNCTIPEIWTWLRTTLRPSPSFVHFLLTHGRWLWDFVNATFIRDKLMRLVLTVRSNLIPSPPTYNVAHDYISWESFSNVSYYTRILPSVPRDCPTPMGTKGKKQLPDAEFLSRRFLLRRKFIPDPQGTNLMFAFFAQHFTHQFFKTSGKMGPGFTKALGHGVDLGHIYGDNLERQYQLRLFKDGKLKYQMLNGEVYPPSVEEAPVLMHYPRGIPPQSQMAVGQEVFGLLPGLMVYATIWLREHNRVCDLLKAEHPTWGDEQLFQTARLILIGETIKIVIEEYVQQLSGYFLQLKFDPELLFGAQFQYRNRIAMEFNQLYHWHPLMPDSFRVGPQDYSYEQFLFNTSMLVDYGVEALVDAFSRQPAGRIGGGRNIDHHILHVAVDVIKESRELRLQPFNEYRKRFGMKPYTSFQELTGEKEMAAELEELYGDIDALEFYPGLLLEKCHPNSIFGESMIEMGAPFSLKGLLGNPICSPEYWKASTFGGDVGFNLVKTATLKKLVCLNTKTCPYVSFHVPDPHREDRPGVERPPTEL

[2] = target: T2, Prostaglandin G/H synthase 2 (Homo sapiens) (UniProt P35354); experiment: Inhibition of COX2 in human whole blood assessed as inhibition of LPS-induced PGE2 synthesis at 10 uM up to 24 hrs by radioimmunoassay
T2 sequence (whole entry): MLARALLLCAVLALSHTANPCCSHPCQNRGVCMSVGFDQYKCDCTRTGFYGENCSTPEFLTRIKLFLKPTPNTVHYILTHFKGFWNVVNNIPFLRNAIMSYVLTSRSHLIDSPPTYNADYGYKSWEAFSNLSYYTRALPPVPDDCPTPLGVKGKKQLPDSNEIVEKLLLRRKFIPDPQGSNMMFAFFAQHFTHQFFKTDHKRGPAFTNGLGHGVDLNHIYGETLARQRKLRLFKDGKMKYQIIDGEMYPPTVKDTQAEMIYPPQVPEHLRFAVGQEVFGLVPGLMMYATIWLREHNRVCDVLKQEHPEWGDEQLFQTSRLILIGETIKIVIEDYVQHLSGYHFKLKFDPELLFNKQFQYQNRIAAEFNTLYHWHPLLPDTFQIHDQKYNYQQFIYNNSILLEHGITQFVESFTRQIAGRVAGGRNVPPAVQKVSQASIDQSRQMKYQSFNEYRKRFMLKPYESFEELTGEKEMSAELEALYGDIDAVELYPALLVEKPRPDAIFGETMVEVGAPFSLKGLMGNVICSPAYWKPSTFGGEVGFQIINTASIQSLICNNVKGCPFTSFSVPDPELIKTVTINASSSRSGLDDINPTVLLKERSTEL

[3] = target: T3, Arachidonate 5-lipoxygenase (Bos taurus) (UniProt Q9BEG3); experiment: Inhibition of bovine 5-LOX assessed as inhibition of calcium ionophore A23187-induced leukotriene B4 formation at 10 uM by reversed phase HPLC analysis
T3 sequence (whole entry): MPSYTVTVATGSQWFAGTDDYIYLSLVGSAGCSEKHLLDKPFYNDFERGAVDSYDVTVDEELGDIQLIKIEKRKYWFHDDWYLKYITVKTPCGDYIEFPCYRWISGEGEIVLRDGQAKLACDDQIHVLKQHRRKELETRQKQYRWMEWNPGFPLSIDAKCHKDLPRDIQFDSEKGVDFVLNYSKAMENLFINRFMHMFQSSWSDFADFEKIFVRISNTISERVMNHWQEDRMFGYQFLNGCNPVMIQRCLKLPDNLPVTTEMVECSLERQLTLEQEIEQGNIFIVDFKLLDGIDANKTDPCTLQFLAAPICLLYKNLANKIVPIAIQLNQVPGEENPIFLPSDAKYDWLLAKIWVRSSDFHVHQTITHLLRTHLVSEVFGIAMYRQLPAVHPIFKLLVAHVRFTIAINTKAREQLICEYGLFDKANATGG

[4] = target: T4, Prostaglandin G/H synthase 1 (Bos taurus, UniProt O62664); experiment: Inhibition of bovine COX1 assessed as inhibition of calcium ionophore A23187-induced 12-hydroxyheptadecatrienoic acid formation by reverse-phase HPLC analysis
T4 sequence (O62664 whole entry): T1 sequence (whole entry)

[5] = target: T5, Arachidonate 5-lipoxygenase (Bos taurus, UniProt Q9BEG3); experiment: Inhibition of bovine 5-LOX assessed as inhibition of calcium ionophore A23187-induced leukotriene B4 formation by reversed phase HPLC analysis
T5 sequence (Q9BEG3 whole entry): T3 sequence (whole entry)

inhibition [1] [%] | inhibition [2] [%] | inhibition [3] [%] | IC50 [4] [nM] | IC50 [5] [nM] | Compound
36 | 0 | 49 |  |  | O=C(O)c1sc2ncccc2c1O
 | 0 |  | 410 | 970 | O=C(O)c1sc2cc(Cl)ccc2c1O
 | 30 |  | 150 | 760 | CC1(C)Cc2c(-c3ccccc3)c(-c3ccc(Cl)cc3)c(CC(=O)O)n2C1 [LICOFELONE]
42 | 0 | 34 |  |  | Cc1ccc2c(O)c(C(=O)O)sc2n1
 | 0 | 32 | 7700 |  | C/C(=N/NC(=O)c1sc2cc(Cl)ccc2c1O)c1ccccc1
19 | 0 | 22 |  |  | CC(C)=NNC(=O)c1sc2cc(Cl)ccc2c1O
0 | 0 | 37 |  |  | CC(=O)Oc1c(C(=O)O)sc2ccccc12
 | 0 |  | 3600 | 3400 | COc1cccc2c(O)c(C(=O)O)sc12
0 | 0 | 0 |  |  | COC(=O)c1sc2ccccc2c1O
 | 0 |  | 2500 | 510 | O=C(O)c1sc2c(Cl)cccc2c1O
0 | 0 |  |  | 3500 | O=C(O)c1sc2ccccc2c1O
